From ChEMBL document CHEMBL1221277, “Design, synthesis and anticholinesterase activity of a novel series of 1-benzyl-4-((6-alkoxy-3-oxobenzofuran-2(3H)-ylidene) methyl) pyridinium derivatives” (Bioorg Med Chem, 2010)

Molecular target: Acetylcholinesterase (Electrophorus electricus, UniProt O42275)
Assay: Inhibition of electric eel AChE by Ellman's method

Chain of Acetylcholinesterase (O42275 whole entry): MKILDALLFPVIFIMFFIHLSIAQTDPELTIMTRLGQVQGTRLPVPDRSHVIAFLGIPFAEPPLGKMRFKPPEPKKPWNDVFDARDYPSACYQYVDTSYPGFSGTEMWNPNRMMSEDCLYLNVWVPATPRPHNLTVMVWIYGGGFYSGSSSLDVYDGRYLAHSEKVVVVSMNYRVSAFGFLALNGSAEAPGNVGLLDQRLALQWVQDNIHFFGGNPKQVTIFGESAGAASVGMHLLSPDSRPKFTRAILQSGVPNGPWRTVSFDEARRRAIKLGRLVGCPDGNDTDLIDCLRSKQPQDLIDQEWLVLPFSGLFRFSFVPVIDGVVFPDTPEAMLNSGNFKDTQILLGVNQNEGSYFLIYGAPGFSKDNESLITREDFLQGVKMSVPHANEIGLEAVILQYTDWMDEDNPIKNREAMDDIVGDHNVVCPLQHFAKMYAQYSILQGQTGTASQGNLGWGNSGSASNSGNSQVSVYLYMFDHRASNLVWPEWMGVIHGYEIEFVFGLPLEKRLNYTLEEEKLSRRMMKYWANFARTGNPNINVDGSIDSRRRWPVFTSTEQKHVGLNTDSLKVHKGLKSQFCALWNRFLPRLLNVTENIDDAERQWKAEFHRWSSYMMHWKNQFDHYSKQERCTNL

SMILES | IC50
COc1ccc2c(c1)O/C(=C\c1cc[n+](Cc3ccc(C)cc3)cc1)C2=O | 0.475 µM
CCCOc1ccc2c(c1)O/C(=C\c1cc[n+](Cc3ccccc3C)cc1)C2=O | 0.328 µM
CCOc1ccc2c(c1)O/C(=C\c1cc[n+](Cc3cccc(F)c3)cc1)C2=O | 0.048 µM
CCCOc1ccc2c(c1)O/C(=C\c1cc[n+](Cc3cccc(C)c3)cc1)C2=O | 0.234 µM
COc1ccc2c(c1)O/C(=C\c1cc[n+](Cc3cccc(C)c3)cc1)C2=O | 0.123 µM
CCOc1ccc2c(c1)O/C(=C\c1cc[n+](Cc3ccccc3C)cc1)C2=O | 0.546 µM
CCCOc1ccc2c(c1)O/C(=C\c1cc[n+](Cc3ccccc3)cc1)C2=O | 0.08 µM
CCCOc1ccc2c(c1)O/C(=C\c1cc[n+](Cc3ccc(C)cc3)cc1)C2=O | 0.612 µM
CCOc1ccc2c(c1)O/C(=C\c1cc[n+](Cc3cccc(C)c3)cc1)C2=O | 0.399 µM
CCOc1ccc2c(c1)O/C(=C\c1cc[n+](Cc3ccc(C)cc3)cc1)C2=O | 0.79 µM
CCCOc1ccc2c(c1)O/C(=C\c1cc[n+](Cc3ccc(F)cc3)cc1)C2=O | 0.068 µM
COc1ccc2c(c1)O/C(=C\c1cc[n+](Cc3ccccc3F)cc1)C2=O | 0.01 µM
COc1ccc2c(c1)O/C(=C\c1cc[n+](Cc3ccccc3)cc1)C2=O | 0.041 µM
CCOc1ccc2c(c1)O/C(=C\c1cc[n+](Cc3ccccc3F)cc1)C2=O | 0.032 µM
CCCOc1ccc2c(c1)O/C(=C\c1cc[n+](Cc3cccc(F)c3)cc1)C2=O | 0.107 µM
CCCOc1ccc2c(c1)O/C(=C\c1cc[n+](Cc3ccccc3F)cc1)C2=O | 0.05 µM
COc1ccc2c(c1)O/C(=C\c1cc[n+](Cc3ccccc3C)cc1)C2=O | 0.068 µM
CCOc1ccc2c(c1)O/C(=C\c1cc[n+](Cc3ccc(F)cc3)cc1)C2=O | 0.051 µM
CCOc1ccc2c(c1)O/C(=C\c1cc[n+](Cc3ccccc3)cc1)C2=O | 0.063 µM
COc1ccc2c(c1)O/C(=C\c1cc[n+](Cc3ccc(F)cc3)cc1)C2=O | 0.022 µM
COc1ccc2c(c1)O/C(=C\c1cc[n+](Cc3cccc(F)c3)cc1)C2=O | 0.06 µM
